Tests used:
[1] = test system: PBMCs; assay: LPS-induced TNFα/IL-8 release in PBMC cells; assay type: cell-based; conditions: Homo sapiens, LPS-stimulated PBMCs, IL-8, read-out: IC50 Values for Inhibition of Cytokine Release, PBMCs IL-8
Description: Peripheral blood mononuclear cells (PBMCs) from healthy subjects are separated from whole blood using a density gradient (Lymphoprep, Axis-Shield Healthcare). The PBMCs are seeded in 96 well plates and treated with compounds at the desired concentration for 2 hours before addition of 1 ng/mL LPS (Escherichia Coli 0111:B4 from Sigma Aldrich) for 24 hours under normal tissue culture conditions (37° C., 5% CO2). The supernatant is harvested for determination of IL-8 and TNFα concentrations by sandwich ELISA (Duo-set, R&D systems) and read on the fluorescence microplate reader (Varioskan® Flash, ThermoFisher Scientific). The concentration at 50% inhibition (IC50) of IL-8 and TNFα production is calculated from the dose response curve.

[2] = target: GSK3α (Homo sapiens (Human), UniProt P49840); assay: GSK 3α enzyme inhibition (FRET, Z-LYTE; Method 2); assay type: biochemical
Description: The enzyme inhibitory activities of compounds disclosed herein are determined by FRET using synthetic peptides labelled with both donor and acceptor fluorophores (Z-LYTE, Invitrogen Ltd., Paisley, UK).
The inhibitory activities of compounds of the invention against the GSK 3α enzyme isoform (Invitrogen), are evaluated by determining the level of activation/phosphorylation of the target peptide. The GSK3-α protein (500 ng/mL, 2.5 μL) is mixed with the test compound (2.5 μL at either 4 μg/mL, 0.4 μg/mL, 0.04 μg/mL, or 0.004 μg/mL) for 2 hr at RT. The FRET peptide (8 μM, 2.5 μL), which is a phosphorylation target for GSK3α, and ATP (40 μM, 2.5 μL) are then added to the enzyme/compound mixture and the resulting mixture incubated for 1 hr. Development reagent (protease, 5 μL) is added for 1 hr prior to detection in a fluorescence microplate reader (Varioskan® Flash, ThermoFisher Scientific).
In all cases, the site-specific protease cleaves non-phosphorylated peptide only and eliminates the FRET signal. Phosphorylation levels of each reaction are calculated using the ratio of coumarin emission (donor) over fluorescein emission (acceptor), for which high ratios indicate high phosphorylation and low ratios indicate low phosphorylation levels. The percentage inhibition of each reaction is calculated relative to non-inhibited control and the 50% inhibitory concentration (IC50 value) is then calculated from the concentration-response curve.
This method follows the same steps as Method 1 above, but utilises a shorter period of mixing of the test compound (105 minutes instead of 2 hours) with the GSK3-α protein.

Chain of GSK3α (P49840 whole entry): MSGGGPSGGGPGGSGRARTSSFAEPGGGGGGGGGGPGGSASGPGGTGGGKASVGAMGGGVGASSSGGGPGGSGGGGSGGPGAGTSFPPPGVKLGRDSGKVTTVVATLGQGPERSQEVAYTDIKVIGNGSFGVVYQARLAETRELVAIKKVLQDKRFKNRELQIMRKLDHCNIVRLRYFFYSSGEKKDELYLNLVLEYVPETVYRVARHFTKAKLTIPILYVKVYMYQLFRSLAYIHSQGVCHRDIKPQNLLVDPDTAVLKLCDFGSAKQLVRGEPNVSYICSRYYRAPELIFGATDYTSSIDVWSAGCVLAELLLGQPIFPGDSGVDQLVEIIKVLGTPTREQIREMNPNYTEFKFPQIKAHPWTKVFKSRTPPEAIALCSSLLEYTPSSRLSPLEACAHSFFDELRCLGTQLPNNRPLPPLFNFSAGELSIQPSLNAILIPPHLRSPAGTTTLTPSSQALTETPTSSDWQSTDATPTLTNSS

| IC50 [2] [µM] | SMILES | IC50 [1] [µM] |
| --- | --- | --- |
| 8.13 | CC(C)(C)c1cc(NC(=O)Nc2ccc(Oc3ccnc(N4CCC[C@H]4CO)n3)c3ccccc23)n(-c2ccc(P(C)(C)=O)cc2)n1 [Example 26, (S)-1-(3-(tert-Butyl)-1-(4-(dimethylphosphoryl)phenyl)-1H-pyrazol-5-yl)-3-(4-((2-(2-(hydroxymethyl)pyrrolidin-1-yl)pyrimidin-4-yl)oxy)naphthalen-1-yl)urea] | 0.189 |
| 0.979 | CC(C)(C)c1cc(NC(=O)Nc2ccc(Oc3ccnc(N4CCC[C@@H]4CO)n3)c3ccccc23)n(-c2ccc(P(C)(C)=O)cc2)n1 [Example 27, (R)-1-(3-(tert-Butyl)-1-(4-(dimethylphosphoryl)phenyl)-1H-pyrazol-5-yl)-3-(4-((2-(2-(hydroxymethyl)pyrrolidin-1-yl)pyrimidin-4-yl)oxy)naphthalen-1-yl)urea] | 0.209 |
| 0.211 | CC(C)(C)c1cc(NC(=O)Nc2ccc(Oc3ccnc(NCCCO)n3)c3ccccc23)n(-c2ccc(P(C)(C)=O)cc2)n1 [Example 31, 1-(3-(tert-Butyl)-1-(4-(dimethylphosphoryl)phenyl)-1H-pyrazol-5-yl)-3-(4-((2-((3-hydroxy-propyl)amino)pyrimidin-4-yl)oxy)naphthalen-1-yl)urea] | 0.0902 |
| 0.326 | CC(C)(C)c1cc(NC(=O)Nc2ccc(Oc3ccnc(Nc4ccc5c(c4)NC(=O)C5)n3)c3ccccc23)n(-c2cccc(CP(C)(C)=O)c2)n1 [Example 33, 1-(3-(tert-Butyl)-1-(3-((dimethylphosphoryl)methyl)phenyl)-1H-pyrazol-5-yl)-3-(4-((2-((2-oxoindolin-6-yl)amino)pyrimidin-4-yl)oxy)naphthalen-1-yl)urea] | 0.0024 |
| 0.324 | CC(C)(C)c1cc(NC(=O)Nc2ccc(Oc3ccnc(Nc4cccc(OCCN5CCOCC5)c4)n3)c3ccccc23)n(-c2cccc(CP(C)(C)=O)c2)n1 [Example 34, 1-(3-(tert-Butyl)-1-(3-((dimethylphosphoryl)methyl)phenyl)-1H-pyrazol-5-yl)-3-(4-((2-((3-(2-morpholinoethoxy)phenyl)amino)pyrimidin-4-yl)oxy)naphthalen-1-yl)urea] | 0.0011 |
| 8.92 | COc1ccccc1Nc1nccc(Oc2ccc(NC(=O)Nc3cc(C(C)C)nn3-c3cccc(CP(C)(C)=O)c3)c3ccccc23)n1 [Example 40, 1-(1-(3-((dimethylphosphoryl)methyl)phenyl)-3-isopropyl-1H-pyrazol-5-yl)-3-(4-((2-((2-methoxyphenyl)amino)pyrimidin-4-yl)oxy)naphthalen-1-yl)urea] | 0.104 |
| 0.174 | C#Cc1cc(Nc2nccc(Oc3ccc(NC(=O)Nc4cc(C(C)C)nn4-c4cccc(CP(C)(C)=O)c4)c4ccccc34)n2)cc(C(=O)NCCN2CCOCC2)c1 [Example 43, 3-((4-((4-(3-(1-(3-((Dimethylphosphoryl)methyl)phenyl)-3-isopropyl-1H-pyrazol-5-yl)ureido)naphthalen-1-yl)oxy)pyrimidin-2-yl)amino)-5-ethynyl-N-(2-morpholinoethyl)benzamide] | 0.0016 |
| 1.59 | COc1cc(Nc2nccc(Oc3ccc(NC(=O)Nc4cc(C(C)C)nn4-c4cccc(CP(C)(C)=O)c4)c4ccccc34)n2)cc(S(=O)(=O)C2CC2)c1 [Example 46, 1-(4-((2-((3-(Cyclopropylsulfonyl)-5-methoxyphenyl)amino)pyrimidin-4-yl)oxy)naphthalen-1-yl)-3-(1-(3-((dimethylphosphoryl)methyl)phenyl)-3-isopropyl-1H-pyrazol-5-yl)urea] | 0.0059 |
| 0.406 | COc1cc(Nc2nccc(Oc3ccc(NC(=O)Nc4cc(C(C)(C)C)nn4-c4cccc(CP(C)(C)=O)c4)c4ccccc34)n2)cc(C(=O)NCCN2CCOCC2)c1 [Example 47, 3-((4-((4-(3-(3-(tert-Butyl)-1-(3-((dimethylphosphoryl)methyl)phenyl)-1H-pyrazol-5-yl)ureido)naphthalen-1-yl)oxy)pyrimidin-2-yl)amino)-5-methoxy-N-(2-morpholinoethyl)-benzamide] | 0.0008 |
| 0.188 | CC(C)c1cc(NC(=O)Nc2ccc(Oc3ccnc(Nc4cc(OCCN5CCOCC5)cc(S(C)(=O)=O)c4)n3)c3ccccc23)n(-c2cccc(CP(C)(C)=O)c2)n1 [Example 53, 1-(1-(3-((Dimethylphosphoryl)methyl)phenyl)-3-isopropyl-1H-pyrazol-5-yl)-3-(4-((2-((3-(methylsulfonyl)-5-(2-morpholinoethoxy)phenyl)amino)pyrimidin-4-yl)oxy)naphthalen-1-yl)urea] | 0.002 |
| > 10 | COc1cc(Nc2nccc(Oc3ccc(NC(=O)Nc4cc(C(C)C)nn4-c4cccc(CP(C)(C)=O)c4)c4ncccc34)n2)cc(OCCN2CCOCC2)c1 [Example 54, 1-(1-(3-((Dimethylphosphoryl)methyl)phenyl)-3-isopropyl-1H-pyrazol-5-yl)-3-(5-((2-((3-methoxy-5-(2-morpholinoethoxy)phenyl)amino)pyrimidin-4-yl)oxy)quinolin-8-yl)urea] | 0.0274 |
| 1.67 | COCCOCCOCCOCCOCCOc1cc(Nc2nccc(Oc3ccc(NC(=O)Nc4cc(C(C)C)nn4-c4cccc(CP(C)(C)=O)c4)c4ccccc34)n2)cc(OC)c1 [Example 55, 1-(4-((2-((3-(2,5,8,11,14-Pentaoxahexadecan-16-yloxy)-5-methoxyphenyl)amino)-pyrimidin-4-yl)oxy)naphthalen-1-yl)-3-(1-(3-((dimethylphosphoryl)methyl)phenyl)-3-isopropyl-1H-pyrazol-5-yl)urea] | 0.0054 |
| 0.788 | C#Cc1cc(Nc2nccc(Oc3ccc(NC(=O)Nc4cc(C(C)C)nn4-c4cccc(CP(C)(C)=O)c4)c4ccccc34)n2)cc(OCCN2CCOCC2)c1 [Example 56, 1-(1-(3-((Dimethylphosphoryl)methyl)phenyl)-3-isopropyl-1H-pyrazol-5-yl)-3-(4-((2-((3-ethynyl-5-(2-morpholinoethoxy)phenyl)amino)pyrimidin-4-yl)oxy)naphthalen-1-yl)urea] | 0.0017 |

— patent US9796742B2, “Kinase inhibitors” (Respivert Limited, priority 2012, dated 2017)
